Reference: patent US20070060558A1 (PALUMED S.A., priority 2004, published 2007)
Converted amounts (≈) assume the structure as drawn. Where a name gives a salt, the structure may show the parent alone. Read-outs that look alike come from different tables or passages of the source.

What was measured:
[1] = test system: Staphylococcus aureus MSSA CIP 4.83; assay: Antibacterial activity (MIC/MBC); format: cell-based; settings: Staphylococcus aureus
[2] = test system: S. aureus MRSA clinical isolate; assay: Antibacterial activity (MIC); format: cell-based, Staphylococcus aureus; settings: Staphylococcus aureus; S. aureus MRSA clinical isolate; read-out: MIC
S. aureus MsrA PUL 5054 = assay: Antibacterial activity (MIC); format: cell-based; settings: Staphylococcus aureus
[3] = test system: S. aureus VISA CIP 106757; assay: Antibacterial activity (MIC); format: cell-based; settings: Staphylococcus aureus; S. aureus VISA CIP 106757; read-out: MIC
[4] = test system: S. epidermidis MSCNS (D10); assay: Antibacterial activity (MIC); format: cell-based; settings: Staphylococcus epidermidis; S. epidermidis MSCNS (D10); read-out: MIC
[5] = test system: S. epidermidis MRCNS (E93); assay: Antibacterial activity (MIC); format: cell-based; settings: Staphylococcus epidermidis; S. epidermidis MRCNS (E93); read-out: MIC
[6] = test system: S. pneumoniae PSSP CQI 201; assay: Antibacterial activity (MIC); format: cell-based, Streptococcus pneumoniae; settings: Streptococcus pneumoniae; S. pneumoniae PSSP CQI 201; read-out: MIC
[7] = test system: S. pneumoniae PRSP (CQR 162); assay: Antibacterial activity (MIC); format: cell-based; settings: Streptococcus pneumoniae; S. pneumoniae PRSP (CQR 162); read-out: MIC
S. pyogenes CIP 56.41T = assay: Antibacterial activity (MIC/MBC); format: cell-based, Streptococcus pyogenes; settings: Streptococcus pyogenes, CIP56; S. pyogenes CIP 56.41T; read-out: MIC
[8] = test system: E. faecium VRE VanA CIP107387; assay: Antibacterial activity (MIC); format: cell-based; settings: Enterococcus faecium; E. faecium VRE VanA CIP107387; read-out: MIC
[9] = test system: E. faecalis VRE VanA CIP106996; assay: Antibacterial activity (MIC); format: cell-based; settings: Enterococcus faecalis; E. faecalis VRE VanA CIP106996; read-out: MIC
[10] = test system: E. faecalis VRE VanB CIP106998; assay: Antibacterial activity (MIC); format: cell-based; settings: Enterococcus faecalis; E. faecalis VRE VanB CIP106998; read-out: MIC
C. difficile CIP 104282 = assay: Antibacterial activity (MIC); format: cell-based, Clostridium difficile; settings: Clostridioides difficile, CIP104282; C. difficile CIP 104282; read-out: MIC
[11] = test system: Staphylococcus aureus MSSA 53.154; assay: Murine experimental septicaemia, in vivo efficacy; set-up: species or system mice; settings: sc, mice, subcutaneously at 1 and 6 h post infection, survival on day 9, hybrid molecules formulated in water as their bis(hydrochloride) salt, read-out: ED50
Procedure: Experimental septicaemia was induced in mice as follows. Briefly, male Swiss OF1 mice (IFFA CREDO-Charles River) weighing 18 to 20 grams were infected intraperitoneally with 0.5 mL of a bacterial suspension containing 8.5×10^7 cfu of Staphylococcus aureus MSSA 53.154 (Institut Pasteur). The hybrid molecules were administered subcutaneously at 1 and 6 h post infection. Control and treatment groups at each dose were composed of seven mice. All the infected but untreated control mice died within 9 days. The 50% effective dose (ED50) values were calculated by a computerized program (GraphPad) from the survival rates on day 9 after infection.

[12] = test system: Human lung fibroblast cells (ATCC CCL-171); assay: Cytotoxicity (MTT) assay; settings: human, 18 hr
Procedure: Cellular toxicity was measured by a colorimetric assay that makes use of the tetrazolium salt, MTT. Human lung fibroblast cells (ATCC CCL-171) were plated in 96-well plates at 10^4 cells per well and incubated under 5% CO2 at 37° C. for 24 hr to allow adherence of cells to the plate. Test compounds were prepared as a stock solution at 1 mg/mL in 1% DMSO/water and diluted with water for the serial dilutions (500-7.8 μg/mL). Cells underwent a 18 hr treatment under 5% CO2 at 37° C. with experimental drugs. Corresponding controls received either no drug treatment or treatment with SDS (sodium dodecyl sulfate). The optical density of each sample was read on a microplate spectrophotometer reader at 600 nm and cell survival was expressed as a fraction of that of untreated controls. A drug is said cytotoxic when this fraction is ≦−30%

S. aureus NorA 1199B = assay: Antibacterial activity (MIC); format: cell-based, Staphylococcus aureus
S. pneumoniae PRSP = assay: Antibacterial activity (MIC), Table VII; format: cell-based; settings: Streptococcus pneumoniae
[13] = test system: E. faecalis VRE CIP 104676; assay: Antibacterial activity (MIC/MBC); format: cell-based, Enterococcus faecalis; settings: Enterococcus faecalis
H. influenzae CIP 102514 = assay: Antibacterial activity (MIC/MBC); format: cell-based, Haemophilus influenzae; settings: Haemophilus influenzae, CIP102514
E. coli CIP 54127 = assay: Antibacterial activity (MIC); format: cell-based; settings: Escherichia coli, CIP54127
P. aeruginosa CIP 103467 = assay: Antibacterial activity (MIC); format: cell-based; settings: Pseudomonas aeruginosa, CIP103467
B. subtilis CIP 5262 = assay: Antibacterial activity (MIC); format: cell-based; settings: Bacillus subtilis, CIP5262
[14] = test system: B. thuringiensis CIP 104676; assay: Antibacterial activity (MIC); format: cell-based; settings: Bacillus thuringiensis, CIP104676
[15] = S. aureus MSSA CIP 4.83, read-out: MIC
[16] = Staphylococcus aureus, NORA1199B
[17] = S. pneumoniae PRSP (Table VII), read-out: MIC
[18] = E. faecalis VRE CIP 104676, read-out: MIC
[19] = H. influenzae CIP 102514, read-out: MIC
[20] = E. coli CIP 54127, read-out: MIC
[21] = P. aeruginosa CIP 103467, read-out: MIC
[22] = B. subtilis CIP 5262, read-out: MIC
[23] = B. thuringiensis CIP 104676, read-out: MIC

Row | Structure (SMILES) | MIC [1, 15] [µg/mL] | MIC [2] [µg/mL] | MIC (S. aureus MsrA PUL 5054) [µg/mL] | MIC [3] [µg/mL] | MIC [4] [µg/mL] | MIC [5] [µg/mL] | MIC [6] [µg/mL] | MIC [7] [µg/mL] | MIC (S. pyogenes CIP 56.41T) [µg/mL] | MIC [8] [µg/mL] | MIC [9] [µg/mL] | MIC [10] [µg/mL] | MIC (C. difficile CIP 104282) [µg/mL] | ED50 [11] [mg/kg] | % of survival cells compared to the untreated controls ([12]; 7.8 μg/mL) [%] | % of survival cells compared to the untreated controls ([12]; 15.6 μg/mL) [%] | % of survival cells compared to the untreated controls ([12]; 31.2 μg/mL) [%] | % of survival cells compared to the untreated controls ([12]; 62.5 μg/mL) [%] | % of survival cells compared to the untreated controls ([12]; 125 μg/mL) [%] | MIC (S. aureus NorA 1199B; [16]) [µg/mL] | also measured
1 | CN[C@H](CC(C)C)C(=O)N[C@H]1C(=O)N[C@@H](CC(N)=O)C(=O)N[C@H]2C(=O)N[C@H]3C(=O)N[C@H](C(=O)N[C@H](C(=O)O)c4cc(O)cc(O)c4-c4cc3ccc4O)[C@H](O)c3ccc(c(Cl)c3)Oc3cc2cc(c3OC2OC(CO)C(O)C(O)C2OC2CC(C)(NCCCCNc3ccnc4cc(Cl)ccc34)C(O)C(C)O2)Oc2ccc(cc2Cl)[C@H]1O (stereo partly shown) [PA 1158, N-4-[4(7-Chloroquinolin-4-ylamino)-butyl]-vancomycin] | 0.1 (≈ 0.0595 µM) | 0.2 (≈ 0.119 µM) | < 0.045 | 0.39 (≈ 0.232 µM) | 0.1 (≈ 0.0595 µM) | 0.05 (≈ 0.0297 µM) | 0.012 (≈ 0.00713 µM) | 0.025 (≈ 0.0149 µM) | 0.062 (≈ 0.0369 µM) | 25 (≈ 14.9 µM) | 6.25 (≈ 3.72 µM) | 6.25 (≈ 3.72 µM) | 0.078 (≈ 0.0464 µM) | 0.26 | −11.8 | −13.2 | −10.7 | −16.9 | −16.9 | – | % of survival cells compared to the untreated controls ([12]; 250 μg/mL): −19.8%; % of survival cells compared to the untreated controls ([12]; 500 μg/mL): −18.4%
2 | O=C(O)c1cn(C2CC2)c2cc(N3CCNCC3)c(F)cc2c1=O [Ciprofloxacin, reference compound] | 0.312 (≈ 0.942 µM) | – | – | – | – | – | – | – | – | – | – | – | – | – | – | – | – | – | – | > 50 | MIC (S. aureus NorA 1199B; S. aureus NorA 1199B (quinolone-resistant by efflux)): >50 µg/mL; MIC (S. pneumoniae PRSP; [17]): 1.25 µg/mL (≈ 3.77 µM); MIC [13, 18]: 1.25 µg/mL (≈ 3.77 µM); MIC (H. influenzae CIP 102514; [19]): 0.1 µg/mL (≈ 0.302 µM); MIC (E. coli CIP 54127; [20]): 0.01 µg/mL (≈ 0.0302 µM); MIC (P. aeruginosa CIP 103467; [21]): 0.156 µg/mL (≈ 0.471 µM); MIC (B. subtilis CIP 5262; [22]): 0.04 µg/mL (≈ 0.121 µM); MIC [14, 23]: 0.156 µg/mL (≈ 0.471 µM)
3 | Cl.O=C(O)c1cn(C2CC2)c2cc(N3CCN(CCNc4ccnc5cc(Cl)ccc45)CC3)c(F)cc2c1=O [PA 1127, 7-{4-[2-(7-Chloroquinolin-4-ylamino)-ethyl]-piperazin-1-yl}-1-cyclopropyl-6-fluoro-4-oxo-1,4-dihydroquinoline-3-carboxylic acid hydrochloride] | 1.25 | – | – | – | – | – | – | – | – | – | – | – | – | – | – | – | – | – | – | 3 | MIC (S. pneumoniae PRSP; [17]): 2.5 µg/mL; MIC [13, 18]: 1.25 µg/mL; MIC (H. influenzae CIP 102514; [19]): 0.156 µg/mL; MIC (E. coli CIP 54127; [20]): 0.156 µg/mL; MIC (P. aeruginosa CIP 103467; [21]): 5 µg/mL; MIC (B. subtilis CIP 5262; [22]): 0.312 µg/mL; MIC [14, 23]: 0.625 µg/mL
4 | CN[C@H](CC(C)C)C(=O)N[C@H]1C(=O)N[C@@H](CC(N)=O)C(=O)N[C@H]2C(=O)N[C@H]3C(=O)N[C@H](C(=O)N[C@H](C(=O)O)c4cc(O)cc(O)c4-c4cc3ccc4O)[C@H](O)c3ccc(c(Cl)c3)Oc3cc2cc(c3OC2OC(CO)C(O)C(O)C2OC2CC(C)(NCCNc3ccnc4cc(Cl)ccc34)C(O)C(C)O2)Oc2ccc(cc2Cl)[C@H]1O (stereo partly shown) [PA 1159] | 0.2 (≈ 0.121 µM) | 0.1 (≈ 0.0605 µM) | < 0.045 | 0.2 (≈ 0.121 µM) | 0.2 (≈ 0.121 µM) | 0.05 (≈ 0.0302 µM) | 0.006 (≈ 0.00363 µM) | 0.025 (≈ 0.0151 µM) | 0.125 (≈ 0.0756 µM) | 25 (≈ 15.1 µM) | 1.56 (≈ 0.943 µM) | 12.5 (≈ 7.56 µM) | 0.16 (≈ 0.0967 µM) | 0.37 | – | – | – | – | – | – | –
5 | CN[C@H](CC(C)C)C(=O)N[C@H]1C(=O)N[C@@H](CC(N)=O)C(=O)N[C@H]2C(=O)N[C@H]3C(=O)N[C@H](C(=O)N[C@H](C(=O)O)c4cc(O)cc(O)c4-c4cc3ccc4O)[C@H](O)c3ccc(c(Cl)c3)Oc3cc2cc(c3OC2OC(CO)C(O)C(O)C2OC2CC(C)(NCc3ccc(OCCNc4ccnc5cc(Cl)ccc45)cc3)C(O)C(C)O2)Oc2ccc(cc2Cl)[C@H]1O (stereo partly shown) [PA 1157, N-4-{4-[2-(7-Chloroquinolin-4-ylamino)ethoxy]-benzyl}-vancomycin] | 0.012 (≈ 0.00682 µM) | 0.2 (≈ 0.114 µM) | < 0.045 | 0.1 (≈ 0.0568 µM) | 0.05 (≈ 0.0284 µM) | 0.003 (≈ 0.0017 µM) | 0.003 (≈ 0.0017 µM) | 0.003 (≈ 0.0017 µM) | 0.125 (≈ 0.071 µM) | 6.25 (≈ 3.55 µM) | 3.12 (≈ 1.78 µM) | 6.25 (≈ 3.55 µM) | 0.078 (≈ 0.0443 µM) | 0.09 | −22.0 | −22.5 | −24.2 | −24.9 | −26.9 | – | % of survival cells compared to the untreated controls ([12]; 250 μg/mL): −26.2%; % of survival cells compared to the untreated controls ([12]; 500 μg/mL): −29.2%
6 | O=C(O)c1cn(C2CC2)c2cc(N3CCN(c4ccnc5cc(Cl)ccc45)CC3)c(F)cc2c1=O [hydrochloride] | – | – | – | – | – | – | – | – | – | – | – | – | – | – | – | – | – | – | – | 0.18 | MIC [1]: 0.156 µg/mL; fold more active than the sub-structure from which it comes (S. aureus NorA 1199B; S. aureus NorA, versus ciprofloxacin): 280; MIC (S. pneumoniae PRSP; PRSP): 0.078 µg/mL; MIC [13]: 0.078 µg/mL; MIC (H. influenzae CIP 102514): 0.312 µg/mL; MIC (E. coli CIP 54127): 0.612 µg/mL; MIC (P. aeruginosa CIP 103467): 5 µg/mL; MIC (B. subtilis CIP 5262): < 0.001 µg/mL; MIC [14]: 0.156 µg/mL
